From patent publication US20210130473A1, “TGFßR1 INHIBITOR-ASGR ANTIBODY CONJUGATES AND USES THEREOF” (Silverback Therapeutics, Inc., priority 2019, published 2021)

Legend:
[1] = test system: TGFβ/SMAD Signaling Pathway SBE reporter cell line; test: TGFb reporter assay in HEK293 SBE-LUC reporter cells (luciferase); type: cell-based; details: Homo sapiens, key of the table says IC50, read-out: EC50 (the source's name)
Description: TGFβ/SMAD Signaling Pathway SBE reporter cell line was obtained from BPS Bioscience. Cells are passed, expanded, and stored in liquid nitrogen as per the supplier's instructions with the exception that growth media is changed to DMEM-C with Geneticin (DMEM supplemented with 10% fetal bovine serum, 1×NEAA, 1 mM Pyruvate, 2 mM glutamine, 50 μg/mL penicillin, 50 U/mL streptomycin and 400 μg/mL of Geneticin). The assay media is MEM supplemented with 0.5% fetal bovine serum, 1×NEAA, 1 mM Pyruvate, 50 μg/mL penicillin and 50 U/mL streptomycin.
Compounds are assayed to measure their activity as ALK5 inhibitors.
The HEK293 SBE-LUC reporter cells from Example 15 were grown in DMEM-C with Geneticin (DMEM supplemented with […], 1×NEAA, 1 mM Pyruvate, 2 mM glutamine, 50 μg/mL penicillin, 50 U/mL streptomycin and 400 ug/mL of Geneticin). The assay media was MEM supplemented with 0.5% fetal bovine serum, 1×NEAA, 1 mM Pyruvate, 50 μg/mL penicillin and 50 U/mL streptomycin.
The HEK293 SBE-LUC reporter cells were harvested from the tissue culture flasks by incubation in small quantity of Versene at room temperature for three to five minutes after the media in the flask is removed and cells rinsed with PBS. Cells were counted and diluted in the assay media at ˜0.8×10^6 cells/mL then 50 uL/well were added to 96-well assay plate. Test samples (at desired concentrations diluted in assay media) were added to assay plate containing the 50 uL/well of cells (or media only), 50 uL per well, and incubated for 5-6 hours at 37° C. in a 5% CO2 humidified incubator. After that time, 15 uL of TGFb diluted to 12.5 ng/mL in the assay media was added to the plate. Controls included TGFb titration (from 25 to 0 ng/mL) without inhibitors, and media only (without cells, inhibitor or TGFb). Plates were incubated at 37° C. in a 5% CO2 humidified incubator for 18h. Luciferase substrate solution was subsequently added at 75 uL per well, incubated in dark with shaking at room temperature for 10 min, and luminescence was measured using a luminometer.

ALK5 = biological target: T1, ALK5 (Homo sapiens, UniProt P36897); test: ALK5 enzyme inhibition assay (casein substrate, 10 uM ATP, 33P-ATP, filter-binding; Reaction Biology Corp); type: biochemical
T1 construct: purchased Reaction Biology Corp (Malvern, Pa.)
T1 sequence (P36897 34-503): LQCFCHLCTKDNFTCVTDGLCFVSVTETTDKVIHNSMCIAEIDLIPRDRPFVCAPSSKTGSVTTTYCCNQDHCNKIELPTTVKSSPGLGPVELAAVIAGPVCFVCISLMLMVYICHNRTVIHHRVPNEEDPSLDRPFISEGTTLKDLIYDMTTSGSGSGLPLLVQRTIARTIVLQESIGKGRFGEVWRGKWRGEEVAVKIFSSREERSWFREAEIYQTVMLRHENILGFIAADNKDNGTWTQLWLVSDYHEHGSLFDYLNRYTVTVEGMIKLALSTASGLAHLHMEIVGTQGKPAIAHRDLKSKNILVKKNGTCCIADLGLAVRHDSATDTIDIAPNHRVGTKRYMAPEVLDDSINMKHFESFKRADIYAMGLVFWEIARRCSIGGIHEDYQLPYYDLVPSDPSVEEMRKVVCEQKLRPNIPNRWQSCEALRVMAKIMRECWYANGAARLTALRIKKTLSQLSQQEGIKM
Description: ALK5 enzyme inhibition assays were performed by Reaction Biology Corp (Malvern, Pa.). 1 mg/mL of peptide substrate (casein) and 10 uM ATP were prepared in a mixture of fresh reaction buffer. The kinase was delivered into the substrate solution which was gently mixed. Compounds in 100% DMSO were added to the kinase reaction mixture by Acoustic technology (Echo550; nanoliter range) and the mixture was incubated for 20 min at room temperature. ^33P-ATP (Specific activity 10 uCi/uL) was added into the reaction mixture to initiate the reaction and the reaction mixture was incubated for 2 hours at room temperature. Radioactivity was detected by filter-binding method and kinase activity data were expressed as the percent remaining kinase activity in test samples compared to vehicle (dimethyl sulfoxide) reactions. IC50 values and curve fits were obtained using Prism (GraphPad Software).

Structure (SMILES)	IC50 [1] [nM]	IC50 (ALK5; Table 12) [nM]	IC50 (ALK5; Table 11) [nM]
Cc1cccc(-c2nc(C3CCCNC3)[nH]c2-c2ccc3ncnn3c2)n1 (centres unmarked) [Compound 1.48]	100 to 1000	1000 to 10000	–
Cc1cccc(-c2nc(CNCCc3ccc(F)cc3)[nH]c2-c2ccc3ncnn3c2)n1 [Compound 62]	0.1 to 10	–	100 to 1000
Cc1cccc(-c2nc(C34CCC(N)(CC3)CC4)[nH]c2-c2ccc3ncnn3c2)n1 [Compound 1.55]	1000 to 10000	1000 to 10000	–
Cc1cccc(-c2nc(CNCc3cccc(C)c3C)[nH]c2-c2ccc3ncnn3c2)n1 [Compound 45]	0.1 to 10	–	50 to 100
Cc1cccc(-c2nc(CNCc3ccccc3CC(F)(F)F)[nH]c2-c2ccc3ncnn3c2)n1 [Compound 27]	0.1 to 10	–	50 to 100
Cc1cccc(-c2nc(CNCc3ccccc3-c3ccc(F)c(F)c3)[nH]c2-c2ccc3ncnn3c2)n1 [Compound 36]	10 to 100	–	50 to 100
COC(=O)[C@@H](NCc1nc(-c2cccc(C)n2)c(-c2ccc3ncnn3c2)[nH]1)c1ccccc1 [Compound 16]	100 to 1000	–	0.1 to 50
Cc1cccc(-c2nc(CNCCOc3ccccc3)[nH]c2-c2ccc3ncnn3c2)n1 [Compound 65]	0.1 to 10	–	100 to 1000
Cc1cccc(-c2nc(CN[C@H]3CCCC[C@@H]3F)[nH]c2-c2ccn3ncnc3c2)n1 [Compound 1.32]	100 to 1000	10 to 100	–
Cc1cccc(-c2nc(CNCc3cccc(C)c3-c3ccccc3)[nH]c2-c2ccc3ncnn3c2)n1 [Compound 48]	10 to 100	–	0.1 to 50
Cc1cccc(-c2nc(CNCc3ccc(Cl)cc3)[nH]c2-c2ccc3ncnn3c2)n1 [Compound 3]	10 to 100	–	1000 to 10000
Cc1cccc(-c2nc(CNCc3ccccc3-c3ccncc3)[nH]c2-c2ccc3ncnn3c2)n1 [Compound 42]	10 to 100	–	100 to 1000
Cc1cccc(-c2nc(CNCc3ccccc3-c3ccccc3)[nH]c2-c2ccc3ncccc3n2)n1 [Compound 68]	10 to 100	–	0.1 to 50
Cc1cccc(-c2nc(CNCc3ccccc3-c3ccccc3)[nH]c2-c2ccc3ncccc3c2)n1 [Compound 91]	10 to 100	–	100 to 1000
Cc1cccc(-c2nc(CNc3cccc4c3CNC4)[nH]c2-c2ccn3ncnc3c2)n1 [Compound 1.31]	100 to 1000	100 to 1000	–
Cc1cccc(-c2nc(CNCc3ccccc3Oc3cccnc3)[nH]c2-c2ccc3ncnn3c2)n1 [Compound 54]	0.1 to 10	–	50 to 100

Structure (SMILES)	IC50 [1] [nM]	IC50 (ALK5; Table 12) [nM]	IC50 (ALK5; Table 11) [nM]
Cc1cccc(-c2nc(CNCc3cccc(Cl)c3)[nH]c2-c2ccc3ncnn3c2)n1 [Compound 2]	10 to 100	–	100 to 1000
COc1ccc(CNCc2nc(-c3cccc(C)n3)c(-c3ccc4ncnn4c3)[nH]2)cc1 [Compound 8]	100 to 1000	–	1000 to 10000
Cc1cccc(-c2nc(CNc3ccc4c(c3)CCC4N)[nH]c2-c2ccc3ncnn3c2)n1 (centres unmarked) [Compound 1.5]	100 to 1000	100 to 1000	–
Cc1cccc(-c2nc(CNC3CCCOC3)[nH]c2-c2ccc3ncnn3c2)n1 (centres unmarked) [Compound 1.15]	10 to 100	100 to 1000	–
CC(=O)NC1Cc2cccc(NCc3nc(-c4cccc(C)n4)c(-c4ccc5ncnn5c4)[nH]3)c2C1 (centres unmarked) [Compound 1.23]	100 to 1000	10 to 100	–
Cc1cccc(-c2nc(CNCc3ccccc3-c3cc(F)cc(F)c3)[nH]c2-c2ccc3ncnn3c2)n1 [Compound 39]	10 to 100	–	0.1 to 50
Cc1cccc(-c2nc(C3CN(C(=O)OC(C)(C)C)C3)[nH]c2-c2ccc3ncnn3c2)n1 [Compound 1.52]	100 to 1000	1000 to 10000	–
Cc1cccc(-c2nc(CNCc3cccc(-c4ccccc4)c3C)[nH]c2-c2ccc3ncnn3c2)n1 [Compound 49]	10 to 100	–	100 to 1000
Cc1cccc(-c2nc(CNC34CC(C3)C4)[nH]c2-c2ccc3ncnn3c2)n1 [Compound 1.9]	10 to 100	1000 to 10000	–
Cc1cccc(-c2nc(CNCc3ccccc3-c3ccc(CN)cc3)[nH]c2-c2ccc3ncnn3c2)n1 [Compound 34]	100 to 1000	–	100 to 1000
COc1ccccc1CCNCc1nc(-c2cccc(C)n2)c(-c2ccc3nccnc3c2)[nH]1 [Compound 87]	0.1 to 10	–	0.1 to 50
Cc1cccc(-c2nc(CNC3CCCCC3C)[nH]c2-c2ccc3ncnn3c2)n1 (centres unmarked) [Compound 1.16]	10 to 100	100 to 1000	–
Cc1cccc(-c2nc(CNCCCc3ccccc3)[nH]c2-c2ccc3ncnn3c2)n1 [Compound 64]	0.1 to 10	–	100 to 1000
Cc1cccc(-c2nc(CNCCNc3ccccc3)[nH]c2-c2ccc3ncnn3c2)n1 [Compound 66]	0.1 to 10	–	100 to 1000
Cc1cccc(-c2nc(CNCc3ccccc3-c3ccccc3F)[nH]c2-c2ccc3ncnn3c2)n1 [Compound 38]	0.1 to 10	–	0.1 to 50

Results, then the compound that gave them:

IC50 [1] [nM]	IC50 (ALK5; Table 12) [nM]	IC50 (ALK5; Table 11) [nM]	Structure (SMILES)
10 to 100	100 to 1000	–	Cc1cccc(-c2nc(CN[C@@H]3CCc4ccccc43)[nH]c2-c2ccn3ncnc3c2)n1 [Compound 1.30]
0.1 to 10	–	0.1 to 50	Cc1cccc(-c2nc(CNCCN(C)c3ccccc3)[nH]c2-c2ccc3nccnc3c2)n1 [Compound 88]
100 to 1000	100 to 1000	–	Cc1cccc(-c2nc(CN[C@H]3CCc4ccccc43)[nH]c2-c2ccn3ncnc3c2)n1 [Compound 1.34]
0.1 to 10	–	100 to 1000	COc1cccc(CNCc2nc(-c3cccc(C)n3)c(-c3ccc4ncnn4c3)[nH]2)c1 [Compound 7]
0.1 to 10	–	100 to 1000	Cc1cccc(-c2nc(CNCc3ccccc3)[nH]c2-c2ccc3ncnn3c2)n1 [Compound 1, 1-(5-([1,2,4]triazolo[1,5-a]pyridin-6-yl)-4-(6-methylpyridin-2-yl)-1H-imidazol-2-yl)-N-benzylmethanamine]
100 to 1000	–	100 to 1000	Cc1cccc(-c2nc(CNCc3ccccc3-c3ccccc3)[nH]c2-c2ccnc3ccccc23)n1 [Compound 69]
100 to 1000	1000 to 10000	–	Cc1cccc(-c2nc(CNc3cccc4c3CC(N)C4)[nH]c2-c2ccc3ncnn3c2)n1 (centres unmarked) [Compound 1.22]
0.1 to 10	–	0.1 to 50	Cc1cccc(-c2nc(CNCc3ccccc3C)[nH]c2-c2ccc3ncnn3c2)n1 [Compound 21]
0.1 to 10	–	0.1 to 50	Cc1cccc(-c2nc(CNCc3ccccc3OC(F)(F)F)[nH]c2-c2ccc3ncnn3c2)n1 [Compound 26]
100 to 1000	1000 to 10000	–	Cc1cccc(-c2nc(C3CCN(C(=O)OC(C)(C)C)C3)[nH]c2-c2ccc3ncnn3c2)n1 (centres unmarked) [Compound 1.51]
0.1 to 10	–	0.1 to 50	Cc1cccc(-c2nc(CNCCc3cccc(F)c3)[nH]c2-c2ccc3ncnn3c2)n1 [Compound 61]
100 to 1000	–	100 to 1000	Cc1cccc(-c2nc(CNCc3ccccc3-c3cccc(CNC(=O)OC(C)(C)C)c3)[nH]c2-c2ccc3ncnn3c2)n1 [Compound 30]
0.1 to 10	–	0.1 to 50	Cc1cccc(-c2nc(CNCc3ccccc3Oc3ccccc3)[nH]c2-c2ccc3ncnn3c2)n1 [Compound 53]
100 to 1000	–	50 to 100	COC(=O)[C@H](NCc1nc(-c2cccc(C)n2)c(-c2ccc3ncnn3c2)[nH]1)c1ccccc1 [Compound 15]
0.1 to 10	–	0.1 to 50	Cc1cccc(-c2nc(CNCc3cccc(Cl)c3C)[nH]c2-c2ccc3ncnn3c2)n1 [Compound 47]
